Measured values: PubChem BioAssay (NCI)
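Each compound was tested at five concentrations against cells in 96-well plates for 48 hours. GI50 = concentration required for 50% inhibition of growth. TGI denotes the concentration required for complete inhibition of growth.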

Columns and labels:
Assay in all cases: growth of human tumour cells (NCI), 48 h
NCI-H23 lung = test system: NCI-H23 lung
A498 renal = test system: A498 renal
SK-MEL-5 melanoma = test system: SK-MEL-5 melanoma
MOLT-4 leukemia = test system: MOLT-4 leukemia
786-0 renal = test system: 786-0 renal
SNB-75 CNS = test system: SNB-75 CNS
RPMI-8226 leukemia = test system: RPMI-8226 leukemia
UACC-62 melanoma = test system: UACC-62 melanoma
PC-3 prostate = test system: PC-3 prostate
SF-539 CNS = test system: SF-539 CNS
MALME-3M melanoma = test system: MALME-3M melanoma
NCI-H522 lung = test system: NCI-H522 lung
TK-10 renal = test system: TK-10 renal
COLO 205 colon = test system: COLO 205 colon
RXF 393 renal = test system: RXF 393 renal
KM12 colon = test system: KM12 colon
SNB-19 CNS = test system: SNB-19 CNS
CAKI-1 renal = test system: CAKI-1 renal
NCI/ADR-RES ovarian = test system: NCI/ADR-RES ovarian
MCF7 breast = test system: MCF7 breast
HCT-15 colon = test system: HCT-15 colon
SR leukemia = test system: SR leukemia
U251 CNS = test system: U251 CNS
M14 melanoma = test system: M14 melanoma
LOX IMVI melanoma = test system: LOX IMVI melanoma
NCI-H460 lung = test system: NCI-H460 lung
NCI-H226 lung = test system: NCI-H226 lung
HS 578T breast = test system: HS 578T breast
BT-549 breast = test system: BT-549 breast
HCC-2998 colon = test system: HCC-2998 colon
A549 NSCLC = test system: A549 NSCLC
T-47D breast = test system: T-47D breast
SF-268 CNS = test system: SF-268 CNS
OVCAR-5 ovarian = test system: OVCAR-5 ovarian
SK-MEL-28 melanoma = test system: SK-MEL-28 melanoma
K-562 leukemia = test system: K-562 leukemia
HT29 colon = test system: HT29 colon
HOP-92 NSCLC = test system: HOP-92 NSCLC
CCRF-CEM leukemia = test system: CCRF-CEM leukemia
SF-295 CNS = test system: SF-295 CNS
SN12C renal = test system: SN12C renal
OVCAR-8 ovarian = test system: OVCAR-8 ovarian
SK-MEL-2 melanoma = test system: SK-MEL-2 melanoma
UACC-257 melanoma = test system: UACC-257 melanoma
DU-145 prostate = test system: DU-145 prostate
MDA-MB-435 = test system: MDA-MB-435
HCT-116 colon = test system: HCT-116 colon
SW-620 colon = test system: SW-620 colon
UO-31 renal = test system: UO-31 renal
OVCAR-3 ovarian = test system: OVCAR-3 ovarian
OVCAR-4 ovarian = test system: OVCAR-4 ovarian
IGROV1 ovarian = test system: IGROV1 ovarian
HOP-62 NSCLC = test system: HOP-62 NSCLC
ACHN renal = test system: ACHN renal
EKVX NSCLC = test system: EKVX NSCLC
SK-OV-3 ovarian = test system: SK-OV-3 ovarian
MDA-MB-231 breast = test system: MDA-MB-231 breast
HL-60(TB) leukemia = test system: HL-60(TB) leukemia

Question: With C=CCN(CC=C)C(=O)c1cc(C)nc2c1c(=O)n(-c1ccccc1)c(=O)n2CCCN1CCN(c2ccccc2OC)CC1 as the compound, how does the GI50 (NCI-H23 lung) read?
Answer: > 50 µM

Question: And the TGI (NCI-H23 lung)?
Answer: > 50 µM

Question: And the GI50 (A498 renal)?
Answer: > 50 µM

Question: What about the TGI (A498 renal) of the same compound?
Answer: > 50 µM

Question: What about the GI50 (SK-MEL-5 melanoma) of the same compound?
Answer: > 50 µM

Question: And the TGI (SK-MEL-5 melanoma)?
Answer: > 50 µM

Question: What about the GI50 (MOLT-4 leukemia) of the same compound?
Answer: > 50 µM

Question: And the TGI (MOLT-4 leukemia)?
Answer: > 50 µM

Question: And the GI50 (786-0 renal)?
Answer: > 50 µM

Question: And the TGI (786-0 renal)?
Answer: > 50 µM

Question: What about the GI50 (SNB-75 CNS) of the same compound?
Answer: 31.4 µM

Question: What about the TGI (SNB-75 CNS) of the same compound?
Answer: > 50 µM

Question: And the GI50 (RPMI-8226 leukemia)?
Answer: > 50 µM

Question: And the TGI (RPMI-8226 leukemia)?
Answer: > 50 µM

Question: What about the GI50 (UACC-62 melanoma) of the same compound?
Answer: > 50 µM

Question: And the TGI (UACC-62 melanoma)?
Answer: > 50 µM

Question: What about the GI50 (PC-3 prostate) of the same compound?
Answer: > 50 µM

Question: And the TGI (PC-3 prostate)?
Answer: > 50 µM

Question: What about the GI50 (SF-539 CNS) of the same compound?
Answer: > 50 µM

Question: What about the TGI (SF-539 CNS) of the same compound?
Answer: > 50 µM

Question: What about the GI50 (MALME-3M melanoma) of the same compound?
Answer: > 50 µM

Question: And the TGI (MALME-3M melanoma)?
Answer: > 50 µM

Question: What about the GI50 (NCI-H522 lung) of the same compound?
Answer: > 50 µM

Question: What about the TGI (NCI-H522 lung) of the same compound?
Answer: > 50 µM

Question: What about the GI50 (TK-10 renal) of the same compound?
Answer: > 50 µM

Question: And the TGI (TK-10 renal)?
Answer: > 50 µM

Question: What about the GI50 (COLO 205 colon) of the same compound?
Answer: > 50 µM

Question: And the TGI (COLO 205 colon)?
Answer: > 50 µM

Question: And the GI50 (RXF 393 renal)?
Answer: > 50 µM

Question: What about the TGI (RXF 393 renal) of the same compound?
Answer: > 50 µM

Question: What about the GI50 (KM12 colon) of the same compound?
Answer: > 50 µM

Question: And the TGI (KM12 colon)?
Answer: > 50 µM

Question: And the GI50 (SNB-19 CNS)?
Answer: > 50 µM

Question: What about the TGI (SNB-19 CNS) of the same compound?
Answer: > 50 µM

Question: What about the GI50 (CAKI-1 renal) of the same compound?
Answer: > 50 µM

Question: What about the TGI (CAKI-1 renal) of the same compound?
Answer: > 50 µM

Question: What about the GI50 (NCI/ADR-RES ovarian) of the same compound?
Answer: > 50 µM

Question: What about the TGI (NCI/ADR-RES ovarian) of the same compound?
Answer: > 50 µM

Question: And the GI50 (MCF7 breast)?
Answer: > 50 µM

Question: And the TGI (MCF7 breast)?
Answer: > 50 µM

Question: What about the GI50 (HCT-15 colon) of the same compound?
Answer: > 50 µM

Question: What about the TGI (HCT-15 colon) of the same compound?
Answer: > 50 µM

Question: What about the GI50 (SR leukemia) of the same compound?
Answer: > 50 µM

Question: What about the TGI (SR leukemia) of the same compound?
Answer: > 50 µM

Question: What about the GI50 (U251 CNS) of the same compound?
Answer: > 50 µM

Question: And the TGI (U251 CNS)?
Answer: > 50 µM

Question: What about the GI50 (M14 melanoma) of the same compound?
Answer: > 50 µM

Question: What about the TGI (M14 melanoma) of the same compound?
Answer: > 50 µM

Question: And the GI50 (LOX IMVI melanoma)?
Answer: > 50 µM

Question: And the TGI (LOX IMVI melanoma)?
Answer: > 50 µM

Question: What about the GI50 (NCI-H460 lung) of the same compound?
Answer: > 50 µM

Question: What about the TGI (NCI-H460 lung) of the same compound?
Answer: > 50 µM

Question: And the GI50 (NCI-H226 lung)?
Answer: > 50 µM

Question: What about the TGI (NCI-H226 lung) of the same compound?
Answer: > 50 µM

Question: What about the GI50 (HS 578T breast) of the same compound?
Answer: > 50 µM

Question: And the TGI (HS 578T breast)?
Answer: > 50 µM

Question: What about the GI50 (BT-549 breast) of the same compound?
Answer: > 50 µM

Question: And the TGI (BT-549 breast)?
Answer: > 50 µM

Question: And the GI50 (HCC-2998 colon)?
Answer: > 50 µM

Question: And the TGI (HCC-2998 colon)?
Answer: > 50 µM

Question: What about the GI50 (A549 NSCLC) of the same compound?
Answer: > 50 µM

Question: And the TGI (A549 NSCLC)?
Answer: > 50 µM

Question: And the GI50 (T-47D breast)?
Answer: > 50 µM

Question: And the TGI (T-47D breast)?
Answer: > 50 µM

Question: And the GI50 (SF-268 CNS)?
Answer: > 50 µM

Question: What about the TGI (SF-268 CNS) of the same compound?
Answer: > 50 µM

Question: And the GI50 (OVCAR-5 ovarian)?
Answer: > 50 µM

Question: And the TGI (OVCAR-5 ovarian)?
Answer: > 50 µM

Question: What about the GI50 (SK-MEL-28 melanoma) of the same compound?
Answer: > 50 µM

Question: What about the TGI (SK-MEL-28 melanoma) of the same compound?
Answer: > 50 µM

Question: And the GI50 (K-562 leukemia)?
Answer: > 50 µM

Question: What about the TGI (K-562 leukemia) of the same compound?
Answer: > 50 µM

Question: And the GI50 (HT29 colon)?
Answer: > 50 µM

Question: What about the TGI (HT29 colon) of the same compound?
Answer: > 50 µM

Question: And the GI50 (HOP-92 NSCLC)?
Answer: 4.57 µM

Question: What about the TGI (HOP-92 NSCLC) of the same compound?
Answer: > 50 µM

Question: What about the GI50 (CCRF-CEM leukemia) of the same compound?
Answer: > 50 µM

Question: And the TGI (CCRF-CEM leukemia)?
Answer: > 50 µM

Question: And the GI50 (SF-295 CNS)?
Answer: > 50 µM

Question: What about the TGI (SF-295 CNS) of the same compound?
Answer: > 50 µM

Question: And the GI50 (SN12C renal)?
Answer: > 50 µM

Question: What about the TGI (SN12C renal) of the same compound?
Answer: > 50 µM

Question: What about the GI50 (OVCAR-8 ovarian) of the same compound?
Answer: > 50 µM

Question: And the TGI (OVCAR-8 ovarian)?
Answer: > 50 µM

Question: And the GI50 (SK-MEL-2 melanoma)?
Answer: > 50 µM

Question: And the TGI (SK-MEL-2 melanoma)?
Answer: > 50 µM

Question: What about the GI50 (UACC-257 melanoma) of the same compound?
Answer: > 50 µM

Question: What about the TGI (UACC-257 melanoma) of the same compound?
Answer: > 50 µM

Question: What about the GI50 (DU-145 prostate) of the same compound?
Answer: > 50 µM

Question: And the TGI (DU-145 prostate)?
Answer: > 50 µM

Question: And the GI50 (MDA-MB-435)?
Answer: > 50 µM

Question: What about the TGI (MDA-MB-435) of the same compound?
Answer: > 50 µM

Question: And the GI50 (HCT-116 colon)?
Answer: > 50 µM

Question: And the TGI (HCT-116 colon)?
Answer: > 50 µM

Question: What about the GI50 (SW-620 colon) of the same compound?
Answer: > 50 µM

Question: And the TGI (SW-620 colon)?
Answer: > 50 µM

Question: What about the GI50 (UO-31 renal) of the same compound?
Answer: > 50 µM

Question: And the TGI (UO-31 renal)?
Answer: > 50 µM

Question: What about the GI50 (OVCAR-3 ovarian) of the same compound?
Answer: > 50 µM

Question: And the TGI (OVCAR-3 ovarian)?
Answer: > 50 µM

Question: And the GI50 (OVCAR-4 ovarian)?
Answer: > 50 µM

Question: And the TGI (OVCAR-4 ovarian)?
Answer: > 50 µM

Question: What about the GI50 (IGROV1 ovarian) of the same compound?
Answer: > 50 µM

Question: And the TGI (IGROV1 ovarian)?
Answer: > 50 µM

Question: And the GI50 (HOP-62 NSCLC)?
Answer: > 50 µM

Question: And the TGI (HOP-62 NSCLC)?
Answer: > 50 µM

Question: What about the GI50 (ACHN renal) of the same compound?
Answer: > 50 µM

Question: And the TGI (ACHN renal)?
Answer: > 50 µM

Question: What about the GI50 (EKVX NSCLC) of the same compound?
Answer: > 50 µM

Question: And the TGI (EKVX NSCLC)?
Answer: > 50 µM

Question: And the GI50 (SK-OV-3 ovarian)?
Answer: > 50 µM

Question: And the TGI (SK-OV-3 ovarian)?
Answer: > 50 µM

Question: And the GI50 (MDA-MB-231 breast)?
Answer: > 50 µM

Question: And the TGI (MDA-MB-231 breast)?
Answer: > 50 µM

Question: What about the GI50 (HL-60(TB) leukemia) of the same compound?
Answer: > 50 µM

Question: And the TGI (HL-60(TB) leukemia)?
Answer: > 50 µM
